The text below walks through data of patent EP3294317B1, “ENHANCED ANTIBIOTIC COMPOSITION” (Universitat Autònoma de Barcelona, priority 2015, dated 2016).

The subject of data set [1] is Escherichia coli ATCC 25922. The data set is described as follows: Colistin broth microdilution MIC with potentiator compounds (Example 1). Format: cell-based. Particulars: E. coli ATCC 25922; MIC in the presence of 1.0% DMSO / MIC in the presence of 0.1 mM potentiator compound and 1.0% DMSO; positive = increased, negative = decreased susceptibility, 1 = no effect. A general note: Broth dilution looks for growth in wells or tubes with falling amounts of substance.

Data set [2] concerns Escherichia coli ATCC 9637. The data set is described as above. The data set is classed as cell-based. Conditions: E. coli ATCC 9637; MIC in the presence of 1.0% DMSO / MIC in the presence of 0.1 mM potentiator compound and 1.0% DMSO; positive = increased, negative = decreased susceptibility, 1 = no effect.
For data set [3], the system named is Pseudomonas aeruginosa ATCC 27853. The data set is described as above. The data set is classed as cell-based. Particulars: P. aeruginosa ATCC 27853; MIC in the presence of 1.0% DMSO / MIC in the presence of 0.1 mM potentiator compound and 1.0% DMSO; positive = increased, negative = decreased susceptibility, 1 = no effect.
The test system of data set [4] is Pseudomonas aeruginosa PAO1. The description is as above. Particulars: P. aeruginosa PAO1; MIC in the presence of 1.0% DMSO / MIC in the presence of 0.1 mM potentiator compound and 1.0% DMSO; positive = increased, negative = decreased susceptibility, 1 = no effect. The data set is classed as cell-based.
In data set [5] the test system is Stenotrophomonas maltophilia ATCC 13637. The data set is described as above. Format: cell-based. Particulars: S. maltophilia ATCC 13637; MIC in the presence of 1.0% DMSO / MIC in the presence of 0.1 mM potentiator compound and 1.0% DMSO; positive = increased, negative = decreased susceptibility, 1 = no effect.
For data set [6], the system named is A. baumannii 6799. The data set can be described thus: Colistin broth microdilution MIC with potentiator compounds, resistant clinical isolates (Example 3). Conditions: MIC in the presence of 1.0% DMSO / MIC in the presence of 0.1 mM compound and 1.0% DMSO, positive = increased susceptibility, 1 = no effect. Format: cell-based, Acinetobacter baumannii. On the procedure:
(§1) The potentiator effect of the compound of the invention and other compounds disclosed herein was tested using colistin sulfate as antibiotic and in combination with the enhancer compounds in front of resistant clinical isolates.
(§2) Tests were performed to determine the potentiator effect of the compound of the invention and other compounds disclosed herein with multidrug-resistant S. maltophilia and A. baumannii clinical strains as shown in Table 5: TABLE 5
(§3) For this experiment the potentiator compound was added to a colistin broth microdilution assay at a final concentration of 0.1mM. MICs were determined as described in the Example 1.
(§4) Colistin minimal inhibitory concentration (MIC), expressed in µg/mL, and the fold increase in bacterial susceptibility to colistin when combined with the potentiator compound (expressed as MIC in the presence of 1.0% DMSO / MIC in the presence of 0.1 mM of each potentiator compound and 1.0% DMSO) are shown in Table 6: […]

Data set [7] has as its system A. baumannii 6963. The data set is described as above. Conditions: MIC in the presence of 1.0% DMSO / MIC in the presence of 0.1 mM compound and 1.0% DMSO, positive = increased susceptibility, 1 = no effect. The data set is classed as cell-based, Acinetobacter baumannii. As for the experimental part: as §1, §2, §3, §4
Data set [8] has as its system A. baumannii 6799. The data set can be described thus: Broth microdilution MIC of other antibiotics with potentiator compounds, clinical isolates (Example 4). The data set is classed as cell-based, Acinetobacter baumannii. As for the experimental part:
(§5) Following the procedure of Example 3, ciprofloxacin, amikacin, levofloxacin, imipenem and the combination trimethoprim/sulfamethoxasole (1:19) were tested. All were purchased from Sigma-Aldrich Co.
(§6) Minimal inhibitory concentration (MIC) of the antibiotic or the test combinations were determined by the broth microdilution method.
(§7) Antibiotic stock solutions were prepared according to CLSI recommendations and sterilizing by passage through 0.20 µm filters.
(§8) Antimicrobial susceptibility testing of these isolates was performed using the broth microdilution (BMD) method, according to CLSI guidelines.
(§9) The fold increase in bacterial susceptibility to antibiotics when combined with the potentiator compound (expressed as MIC in the presence of 1.0% DMSO / MIC in the presence of 0.1 mM of each potentiator compound and 1.0% DMSO) are shown in Table 7: […]

Data set [9] deals with A. baumannii 6963. The data set is described as above. The data set is classed as cell-based, Acinetobacter baumannii. Conditions: MIC in 1.0% DMSO / MIC with 0.1 mM compound and 1.0% DMSO. As for the experimental part: as §5, §6, §7, §8, §9
The test system of another data set is S. aureus F-182. The data set is described as follows: Broth microdilution MIC of compound of formula I alone (Example 5). The data set is classed as cell-based. Conditions: Staphylococcus aureus, ATCC43300, Reference strain, ATCC 43300 (CLSI standard), read-out: Compound of formula I MIC in the presence of 1.0% DMSO. On the procedure:
(§10) The antimicrobial effect of the compound of formula I of the invention was tested in front of specific Gram-positive bacterium, Staphylococcus aureus, an agent usually involved in hospital-acquired infections. For this experiment the S. aureus reference and clinical isolates shown in Table 8 were used, including Methicillin-resistant S. aureus (MRSA): TABLE 8
(§11) Antimicrobial susceptibility testing of these isolates was performed using the broth microdilution (BMD) method, according to CLSI guidelines (Example 1).
(§12) Selected compound of formula I was first dissolved in 100% of sterile-filtered dimethyl sulfoxide (DMSO, Sigma, D2438) to 20 mM. 100 µL of bacterial suspension (final OD550nm=0.01) in MHB were added to the compound dilutions in each well (concentration range from 0.2 mM to 3.125 µM), and the final suspension was mixed and incubated without shaking at 37° C for 24 h before developing with 30 µL of a 0.01% aqueous solution of resazurin. For the experiment all bacteria were first grown overnight in CAMHB using CLSI recommended incubation conditions.
(§13) The compound MIC, expressed in mM, was defined as the lowest concentration of compound at which no visible growth was obtained.

For another data set, the system named is S. aureus Newman. Described as above. Format: cell-based. Conditions: Staphylococcus aureus, NBRC102137 / NEWMAN, Reference strain, NBRC 102137, read-out: Compound of formula I MIC in the presence of 1.0% DMSO. On the procedure: as §10, §11, §12, §13
For a further data set, the system named is S. aureus RN6390. Described as above. Conditions: Staphylococcus aureus, RN6390, read-out: Compound of formula I MIC in the presence of 1.0% DMSO. Format: cell-based. On the procedure:
as §10, §11, §12, §13

A further data set concerns S. aureus RN6911. The description is as above. The data set is classed as cell-based. Conditions: Staphylococcus aureus, RN6911, read-out: Compound of formula I MIC in the presence of 1.0% DMSO. As for the experimental part: as §10, §11, §12, §13
Data set [10] in a line: Solubility of the stock solution in methanol. Conditions: organic solvent or mixture; 100% Methanol; fairly soluble, required vigorous vortex. Format: physicochemical. As for the experimental part:
Selected compound of formula I was first dissolved in 100% of Methanol (HPLC Gradient Grade CHROMASOLV. Sigma, 34885-1L-R) to 10 mM. The compound was fairly soluble in methanol up to 10 mM and required vigorous vortex.

[11] abbreviates: MIC in 1.0% DMSO / MIC with 0.1 mM compound and 1.0% DMSO.

Structures are written as SMILES. Some results are limits rather than exact numbers.

Consider `CN(C)CCNC(=O)c1cccc(CNC(=O)Nc2ccc3c(c2)Cc2ccccc2-3)c1` [I, N-[2-(dimethylamino)ethyl]-3-[(9H-fluoren-2-ylcarbamoylamino)methyl]benzamide], for which the “Fold increase in bacterial susceptibility to colistin” value in [1] is on record as “+2 fold”; in data set [2], “+2 fold”; in data set [3], “+2 fold”; in data set [4], “+2 fold”; in data set [5] it was “+64 fold”; in the data set on A. baumannii 6799 [6], “+8 fold”. Besides, in the data set with A. baumannii 6963 [7], the “Fold increase in bacterial susceptibility to colistin” value is reported as more than 4 fold. In the data set on A. baumannii 6799 [8] (setting [11]), the “Fold increase in bacterial susceptibility to Amikacin” value is 2 fold. Besides, the “Fold increase in bacterial susceptibility to Ciprofloxacin” value was 8 fold with A. baumannii 6799 [8] (setting [11]) and “Ciprofloxacin (2) Levofloxacin (2) Imipenem (2) fold” in the data set on A. baumannii 6963 [9]. In addition, the “Fold increase in bacterial susceptibility to Imipenem” value is listed as 4 fold in the data set with A. baumannii 6799 [8] (setting [11]) and “Ciprofloxacin (2) Levofloxacin (2) Imipenem (2) fold” in the data set on A. baumannii 6963 [9]. Further, the “Fold increase in bacterial susceptibility to Levofloxacin” value in the data set with A. baumannii 6799 [8] (setting [11]) is recorded as 2 fold; in the data set on A. baumannii 6963 [9], “Ciprofloxacin (2) Levofloxacin (2) Imipenem (2) fold”. In the data set with A. baumannii 6799 [8] (Trimethoprim:sulfamethoxazole 1:19, MIC in 1.0% DMSO / MIC with 0.1 mM compound and 1.0% DMSO), the “Fold increase in bacterial susceptibility to TMP/SMX” value is on record as 2 fold. Also, the minimum inhibitory concentration (MIC) in the data set on S. aureus F-182, with S. aureus Newman, in the data set with S. aureus RN6390 and with S. aureus RN6911 was 200 µM each time. For the same molecule, in data set [10], the solubility is not above 10000 µM.

One may read the MIC as the lowest concentration that inhibits growth of the organism. For orientation: solubility means the dissolved amount per volume that the medium holds.
